Results reported in article PMC6155746 (Molecules : A Journal of Synthetic Chemistry and Natural …, 2017).
Several values for one entry are separate records, joined by “and”; a condition that tells them apart may be missing. Identical values can stand only once. Like-named read-outs stand apart in the source and are kept apart here.

Assays:
[1] = reported in the rat, oral; cited from earlier work
rat = settings: in vivo, po; cited from earlier work
[2] = Permeability assay, everted rat gut model; assay type: in vitro ADME, Wistar rats; settings: for Papp at 120 min, 100 μM: male, Wistar, rat, everted rat gut, 37 °C, A-B
Method: Male Wistar rats weighing 200–250 g were used in this research. Everted intestinal sacs were prepared by quickly removing the small intestine from starved rats killed under ether anesthesia. All experiments were carried out after pre-incubation at 37 ± 0.5 °C, with the duodenum and jejunum then excised, flushed-through several times with saline solution at room temperature, and placed immediately into simulated intestinal fluid (SIF). The intestine was gently everted over a steel rod and filled with fresh SIF. The sacs were preincubated in oxygenated buffer solution for 5 min and then placed in 100 mL of oxygenated SIF solution containing 0.0001 M (100 μM) of Compound 1 at 37 °C. Oxygen was bubbled with a pump to maintain viable tissue.
The everted intestinal sac was filled with 1.5 mL of SIF solution, while a test compound solution (0.0001 M) remained external to the everted sac. […] 300 μL samples were collected from inside the sac with a metallic cannula at 5, 10, 15, 30, 45, 60, 90, and 120 min (apical-basolateral transport A-B), after which a medium replacement was made. Both an initial and final sample of the outside solution were analyzed by HPLC.
The apparent intestinal permeability (Papp) was calculated according to Equation (2): (2) Papp=V/(A∗Co)dC/dt where Papp = Apparent Permeability (cm/s), V = Intestinal Volume (mL), A = Surface Area (cm^2), dC/dt = Concentration Gradient, and, Co = Initial Concentration (μg/mL).

plasma glucose levels = system: plasma glucose levels; set-up: method as in PMID 23597793, PMID 23453304; settings: non-insulin dependent diabetes mellitus rat model, 7 h post-administration, Compound 1 at 50 mg/kg single dose; cited from earlier work
[3] = system: 11β-hydroxysteroid dehydrogenase type 1 (11β-HSD1); set-up: method as in PMID 23597793; settings: at 10 μM, HEK293 cells; cited from earlier work
[4] = Bioavailability / pharmacokinetic study, oral and intravenous administration; assay type: in vivo, Wistar rats; set-up: average clearance (CL): unit not given here; settings: for half-life: read-out: T1/2el (converted)
Method: Male Wistar rats weighing 250–300 g were used for pharmacokinetic evaluation. Animals were individually identified by tail markings and acclimated to the study environment for seven days prior to the administration of the dose. Animals were kept on a 12 h light/dark cycle except when this was interrupted for study procedures. Animals were kept at average room temperature, which was regulated in the range of 18 to 29 °C. The animals were fasted prior to dose administration, and had access to water ad libitum.
Rats were anesthetized with ether and cannulated via the caudal vein using polyethylene tubing with an internal diameter of 0.023 inches, and an outer diameter of 0.038 inches (Becton Dickinson Clay Adams).
Compound 1 was prepared with Cremophore (10%) in physiologic saline solution and administered orally in a 50 mg/kg dose, and via intravenous bolus (50 mg/kg). Study was conducted in quintuplicate.
After dosing, serial blood samples were collected (0.2 mL) 0, 0.083, 0.16, 0.25, 0.33, 0.50, 0.75, 1.0, 1.5, 2.0, 3.0, 4.0, 6.0, and 8 h after both oral and intravenous administration using heparinized (20 UI) tubes, and were centrifuged at 5000× g for 10 min, with the plasma harvested and analyzed by HPLC using the previously validated method.
The pharmacokinetic parameters of Compound 1 were obtained via non-compartmental analysis using PK software (PKSolver). The STATA statistical program, version 12, was used for the comparison of the following: the pharmacokinetic parameters obtained via both administration pathways (Cmax and Tmax); the elimination rate constant (kel); the biological half-life; the area under the curve (AUC0–t); the area under the curve from zero to infinity (AUC0–∞); volume of distribution (Vd); clearance (Cl); and, absolute bioavailability (F).

[5] = pKa determination via potentiometric analysis; assay type: physicochemical; settings: methanol/aqueous solution of ionic strength 0.02 M; Mean (±S.D.), potentiometric titration, triplicate; read-out: pKa1
Method: The determination of pKa was undertaken as described by Babic A. et al.. Compound 1 was prepared by weighing 0.001 equivalents, which were dissolved in the minimum volume of methanol, to which aqueous solution with an ionic strength of 0.02 M was added to obtain a final concentration for Compound 1 of 0.006 M. It was titrated with NaOH 0.01 N, which had been previously evaluated with an ionic strength of 0.02 M using Logger Pro 3.5.0 software (Vernier Software & Technology, Beaverton, OR, USA). The study was conducted in triplicate, determining the final points using the criteria from the first and second derivative test.

[6] = Apparent partition coefficient (octanol-water log D, shake-flask); assay type: physicochemical; settings: n-octanol/phosphate buffer
Method: The octanol-water distribution coefficient was determined using the shake-flask method. The two phases were mutually saturated by shaking for 15 min. Phosphate buffers were used as the aqueous phase for the pH range 1.2 to 13. 5 mL portions of different buffer solutions (pH 1.2 to 13) containing 100 μg/mL of Compound 1 were mixed with 2.5 mL of n-Octanol. The mixture was shaken for 30 min, centrifuged at 8000× g for 10 min, after which the aqueous and organic phases were separated. Aqueous samples were analyzed at 222 nm using a validated spectrophotometric method (5–200 μg·mL^−1). The distribution coefficient (log D) was calculated according to Equation (1) for each pH value: (1) Log D=log[Compound]org/[Compound ]aq where [Compound]org is the drug concentration in the organic phase (determined by mass balance) and [Compound]aq is the drug concentration in the aqueous phase for each buffer solution. Every experiment was evaluated in triplicate.

[7] = duodenum, read-out: Papp Duodenum
[8] = jejunum, read-out: Papp Jejunum
[9] = Compound 1, intravenous, 50 mg/kg, Wistar rat, mean
[10] = Compound 1, oral, 50 mg/kg, Wistar rat, mean
[11] = male, plasma, Compound 1, intravenous, 50 mg/kg, Wistar rat, mean
[12] = male, plasma, Compound 1, oral, 50 mg/kg, Wistar rat, mean

For `CC(C)(Oc1ccc(Cl)cc1)C(=O)O` [Compound 2, Clofibric acid], the “average lifetime (half-life) of clofibric acid” value [1] is given as 7 to 8 h and the DL50 (rat) is given as 940 mg/kg.
With `CC1(C)S[C@@H]2[C@H](NC(=O)[C@H](N)c3ccc(O)cc3)C(=O)N2[C@H]1C(=O)O` [Amoxicillin, amoxicillin, reference compound] the Papp at 120 min, 100 μM [2, 7] was 8.52 ×10⁻⁶ cm/s and the Papp at 120 min, 100 μM [2, 8] was 10 ×10⁻⁶ cm/s.
In the case of `COc1ccc(Cl)cc1C(=O)NCCc1ccc(S(=O)(=O)NC(=O)NC2CCCCC2)cc1` [glibenclamide, reference compound], the “reduction in glucose levels in the plasma” value (plasma glucose levels) is given as 40%.
For `CC(C)(Oc1ccc(Cl)cc1)C(=O)Nc1nnn[nH]1` [Compound 1, 2-(4-chlorophenoxy)-2-methyl-N-(1H-tetrazol-5-yl) propanamide], the permeability classification ([2]; compared to the standards naproxen and amoxicillin) was “low permeability”, the Papp at 120 min, 100 μM [2, 7] was 8.73 ×10⁻⁶ cm/s and the Papp at 120 min, 100 μM [2, 8] was 16.2 ×10⁻⁶ cm/s. For the same compound, the “inhibition of 11β-HSD1” value [3] was 51.17%, the average ABC0–α ([4]; Compound 1, intravenous) was 38.8 µg·h/mL and the “ABC0–t” value [4, 9] was 30.5 μg/mL·h. The “ABC0–α” value [4, 9] was 38.8 μg/mL·h, the Cl [4, 9] was 484.5 mL/h and the average ABC0–α ([4]; Compound 1, oral) was 2.58 µg·h/mL. For the same compound, the “average clearance (CL)” value ([4]; Compound 1, oral) was 751.2, the “ABC0–t” value [4, 10] was 2.37 μg/mL·h and the “ABC0–α” value [4, 10] was 2.58 μg/mL·h. For the same compound, the Cl [4, 10] was 751.2 mL/h, the Ka [4, 10] was 3.05 h⁻¹ and the clearance ([4]; male, Wistar, rat, plasma, 50 mg/kg, Compound 1, intravenous, read-out: average clearance (CL) (converted)) was 8.07 mL/min. The half-life ([4]; male, Wistar, rat, plasma, iv, 50 mg/kg, Compound 1, intravenous, 50 mg/kg, Wistar rat, mean) was 42.6 min, the half-life ([4]; male, Wistar, rat, plasma, po, 50 mg/kg, Compound 1, oral, 50 mg/kg, Wistar rat, mean) was roughly 22.8 min and the Vd [4, 11] was 0.4 L and 1.3 L/kg. It also gave a k el [4, 11] of 0.000336 s⁻¹, a bioavailability ([4]; male, plasma, Compound 1, oral vs intravenous, 50 mg/kg, Wistar rat, mean) of 10.4% and a Cmax [4, 12] of 3570 ng/mL. The Tmax [4, 12] was 19.8 min, the k el [4, 12] was 0.000503 s⁻¹ and the “reduction in glucose levels in the plasma” value (plasma glucose levels) was “up to 77%”. The pKa [5] was 4.43, the “log D” value ([6]; pH 1 to 5) was “positive” and the “Log D” value ([6]; pH 7) was “below zero”.
